Experimental findings from article PMC7838546, “A Thermostable, Modified Cathelicidin-Derived Peptide With Enhanced Membrane-Active Activity Against Salmonella enterica serovar Typhimurium” (Frontiers in Microbiology, 2021) are described below.

The data set has as its system L929 mouse fibroblast cells. As to the kind of experiment: Cytotoxicity assay (MTT). It counts as cell-based. The conditions noted are these: 24 h, 62.5 μg/ml. How it is done: The toxicity of P7 peptide on L929 mouse fibroblast cells was assessed by a dye reduction assay using 3-(4,5 dimethylthiazol-2-yl)-2,5-diphenyltetrazolium bromide (MTT). Briefly, 3 × 10^4 L929 cells in RPMI 1640 [supplemented with 10% (v/v) fetal bovine serum, 0.2% (w/v) sodium bicarbonate, 2 mM L-glutamine, 100 U/ml penicillin and […] streptomycin] were seeded into each well of 96-well plates and then incubated in a humidified atmosphere with 5% CO2 at 37°C for 24 h. After the incubation period, the peptide was added to obtain final concentrations of 0.98–250 μg/ml; plates were incubated at 37°C under 5% CO2 for 24 h. RPMI 1640 medium with and without cells were used as positive and negative controls, respectively. After incubation, a final concentration of 0.5 mg/ml MTT (Sigma-Aldrich, MO, United States) was added and incubated at 37°C under 5% CO2 for 4 h. Then, the supernatants were removed from each well and 150 μl of dimethyl sulfoxide (DMSO) was added and mixed thoroughly to solubilize the formazan crystals. Subsequently, absorbance was measured at 570 nm using a microplate reader. The cell viability (%) was calculated according to the formula:
%Cellviability=ODTreated-ODBlank/ODUntreated-ODBlank×100

Turning to `CC[C@H](C)[C@H](NC(=O)CN)C(=O)NCC(=O)N[C@@H](C)C(=O)N[C@H](C(=O)N[C@@H](CC(C)C)C(=O)N[C@@H](CCCCN)C(=O)N[C@H](C(=O)N[C@@H](CC(C)C)C(=O)N[C@H](C(=O)N[C@H](C(=O)NCC(=O)N[C@@H](CC(C)C)C(=O)N1CCC[C@H]1C(=O)N[C@@H](C)C(=O)N[C@@H](CC(C)C)C(=O)N[C@H](C(=O)N[C@@H](CO)C(=O)N[C@@H](Cc1c[nH]c2ccccc12)C(=O)N[C@H](C(=O)N[C@@H](CCCCN)C(=O)N[C@@H](CCCNC(=N)N)C(=O)N[C@@H](CCCCN)C(=O)N[C@@H](CCCNC(=N)N)C(=O)N[C@@H](CCC(N)=O)C(=O)N[C@@H](CCC(N)=O)C(N)=O)[C@@H](C)CC)[C@@H](C)CC)[C@@H](C)O)[C@@H](C)O)C(C)C)C(C)C` [Melittin, reference compound], the Cell viability entry is “less than 10%”.
